# From PubChem BioAssay (NCI)
#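 Growth conditions: 96-well plates. Treatment: test compound, 48 hours, 5 concentrations. Analysis: linear interpolation between bracketing concentrations; unreached endpoints set to highest concentration. TGI denotes the concentration required for complete inhibition of growth.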
# Assays:
# Experiment in all cases: growth of human tumour cells (NCI), 48 h
# MDA-MB-435 = system: MDA-MB-435
# SK-MEL-5 melanoma = system: SK-MEL-5 melanoma
# MCF7 breast = system: MCF7 breast
# NCI/ADR-RES ovarian = system: NCI/ADR-RES ovarian
# OVCAR-5 ovarian = system: OVCAR-5 ovarian
# NCI-H226 lung = system: NCI-H226 lung
# SK-MEL-2 melanoma = system: SK-MEL-2 melanoma
# CCRF-CEM leukemia = system: CCRF-CEM leukemia
# 786-0 renal = system: 786-0 renal
# SNB-75 CNS = system: SNB-75 CNS
# SK-OV-3 ovarian = system: SK-OV-3 ovarian
SMILES,TGI (MDA-MB-435) [µM],TGI (SK-MEL-5 melanoma) [µM],TGI (MCF7 breast) [µM],TGI (NCI/ADR-RES ovarian) [µM],TGI (OVCAR-5 ovarian) [µM],TGI (NCI-H226 lung) [µM],TGI (SK-MEL-2 melanoma) [µM],TGI (CCRF-CEM leukemia) [µM],TGI (786-0 renal) [µM],TGI (SNB-75 CNS) [µM],TGI (SK-OV-3 ovarian) [µM]
O=CC1C(=O)Nc2nc3ccccc3n2C1c1ccccc1 (configuration not stated),44.8,28.7,27.4,> 100,95.7,36.9,43.7,75.2,24.9,22.3,
COC(=O)Cc1c(-c2c(CC(=O)OC)c3ccccc3n2C2OC(COC3OC(COC(C)=O)C(OC(C)=O)C(OC(C)=O)C3OC(C)=O)C(O)C(O)C2O)[nH]c2ccccc12 (configuration not stated),> 100,> 100,> 100,,> 100,> 100,64.7,> 100,> 100,,> 100
COc1ccc2oc(=O)c(-c3nc4ccccc4s3)cc2c1,> 47.1,> 100,,> 96,> 100,> 63.1,> 100,> 75.6,20.5,27.5,36.5
O=CN/C=C\c1cc(O)ccc1O,,> 50.9,,,> 100,> 100,> 100,> 100,31.1,> 100,> 100
C[C@H](N)C(=O)Nc1ccc(-c2nc3ccccc3s2)cc1Cl,28.7,29.9,,> 100,14.9,11.2,30.5,29.3,25.7,34.8,32.7
C[C@H](OC(=O)/C=C/c1ccc(O)c(O)c1)[C@H](C)OC(=O)/C=C/c1ccc(O)c(O)c1,77.3,21.5,70.7,63.1,33.1,,50.3,,20,39.3,32.3
COC(=O)CCC(=O)c1ccc2c(c1)CC1(Cc3ccccc3C1)C2,> 100,33.1,> 100,> 100,> 100,94.9,> 100,45.4,> 100,,> 100
CC(C)(C)OC(=O)/C=C/[C@@H](CCC(=O)/C=C/[C@H](/C=C\CCCC(=O)O)NC1(c2ccccc2)c2ccccc2-c2ccccc21)O[Si](C)(C)C(C)(C)C,48.7,36.8,38.7,32.6,43.6,40.3,30.1,> 100,33.3,,> 100
C/C(=N\Nc1nc2ccccc2[nH]1)c1ccc2ccccc2n1,17,4.5,13.8,7.63,10,,7.23,3.87,10.7,,38.4
Cc1cn(C2CC(/[N+]([O-])=N\Nc3ccc([N+](=O)[O-])cc3)C(CO)O2)c(=O)[nH]c1=O (configuration not stated),> 100,,,> 100,> 100,> 100,,> 100,> 100,,> 100
Cc1cccc2c1CC1(Cc3c(C)cccc3C1=O)C2=O,> 100,> 100,> 100,> 100,> 100,,> 100,> 100,> 100,> 100,> 100
